SMILES strings stand for the structures.

For this experiment, the target named is T1, CXCR4 (Homo sapiens, UniProt P61073).
T1 construct: a human T cell strain in which CXCR4 is known to be expressed; endogenous in cells; host or cells: CEM cells (human T cell strain)
In words: Inhibition of binding of human 125I-SDF-1 to CEM cells. The note with it: 125I-SDF-1, human T cell strain CEM cells, 4° C., 60 minutes. The text has this: Specifically, as a system of screening a compound that inhibits the binding between SDF-1 and CXCR4, for example a system of measuring the binding between iodine-labeled SDF-1 and a human T cell strain in which CXCR4 is known to be expressed is operable. The identical idea is possible since macrophage (R5) HIV and RANTES, MIP-1α, and MIP-1β all bind to CCR5.
Study for Inhibition of Binding Human SDF-1 to CEM Cells
To human T cell strain CEM cells in a binding buffer (containing HEPES and BSA), the test compound and ^125I-SDF-1 (NEN) were added and the mixture was incubated at 4° C. for 60 minutes. The reacted CEM cells were rapidly filtrated with a GF/B membrane filter plate (Packard) to adsorb. The plate was washed with PBS three times and then dried. Microscint+20 (Packard) was added thereto. An amount of the radioactivity bound to the CEM cells was measured using Top Count (Packard) and inhibition (%) of the test compound was calculated according to the following equation: Inhibition={(Et−Ea)/(Et−Ec)}×100
Et: amount of radioactivity when the test compound is not added,
Ec: amount of radioactivity when non-radioactive SDF-1 (Pepro Tech) is added in an amount of 1000 times as much as ^125I-SDF-1 as a test compound, and
Ea: amount of radioactivity when the test compound is added.

T1 sequence (P61073 whole entry): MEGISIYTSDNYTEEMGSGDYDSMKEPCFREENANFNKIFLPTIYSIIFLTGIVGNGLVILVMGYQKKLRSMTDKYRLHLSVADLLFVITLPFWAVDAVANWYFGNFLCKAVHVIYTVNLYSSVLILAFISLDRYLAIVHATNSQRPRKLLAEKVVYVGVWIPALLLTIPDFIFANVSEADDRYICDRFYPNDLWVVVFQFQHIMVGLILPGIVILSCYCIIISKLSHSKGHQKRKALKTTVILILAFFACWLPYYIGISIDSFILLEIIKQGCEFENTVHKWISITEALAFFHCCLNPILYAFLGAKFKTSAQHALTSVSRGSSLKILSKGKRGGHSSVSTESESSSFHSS

The IC50 is the point on the concentration scale where inhibition reaches its midpoint. For `Cc1ccsc1CN1CCC2(CC1)CCN(Cc1ccc(C(=O)C(Cc3ncc[nH]3)Cc3ncc[nH]3)cc1)C2` [compound 14, 3-(1H-imidazol-2-yl)-2-(1H-imidazol-2-ylmethyl)-1-[4-({8-[(3-methyl-2-thienyl)methyl]-2,8-diazaspiro[4.5]dec-2-yl}methyl)phenyl]propan-1-one], the concentration for half-maximal inhibition (IC50) was 11 nM.
